# In ChEMBL document CHEMBL2331167, “Inhibitory effect of novel somatostatin peptide analogues on human cancer cell growth based on the selective inhibition of DNA polymerase β” (Bioorg Med Chem, 2013):
# Active and inactive are the calls of the source. The rule behind the calls is not given here.
# Tests used:
# [1] = Inhibition of human DNA polymerase epsilon using poly(dA)/oligo(dT)18 (A/T, 2/1)/dTTP DNA template-primer substrate measured at 37 degC for 60 mins
# HCT-116 [2] = experiment: Induction of apoptosis in p53 +/+ human HCT116 cells assessed as DNA fragmentation at 13.2 uM incubated for 24 hrs by agarose gel electrophoresis; format: functional, cell-based
# HCT-116 [3] = experiment: Induction of apoptosis in p53 -/- human HCT116 cells assessed as DNA fragmentation at 13.7 uM incubated for 24 hrs by agarose gel electrophoresis; format: functional, cell-based
# [4] = molecular target: T1, DNA polymerase delta catalytic subunit (Homo sapiens, UniProt P28340); experiment: Inhibition of human DNA polymerase delta using poly(dA)/oligo(dT)18 (A/T, 2/1)/dTTP DNA template-primer substrate measured at 37 degC for 60 mins
# T1 sequence (P28340 whole entry): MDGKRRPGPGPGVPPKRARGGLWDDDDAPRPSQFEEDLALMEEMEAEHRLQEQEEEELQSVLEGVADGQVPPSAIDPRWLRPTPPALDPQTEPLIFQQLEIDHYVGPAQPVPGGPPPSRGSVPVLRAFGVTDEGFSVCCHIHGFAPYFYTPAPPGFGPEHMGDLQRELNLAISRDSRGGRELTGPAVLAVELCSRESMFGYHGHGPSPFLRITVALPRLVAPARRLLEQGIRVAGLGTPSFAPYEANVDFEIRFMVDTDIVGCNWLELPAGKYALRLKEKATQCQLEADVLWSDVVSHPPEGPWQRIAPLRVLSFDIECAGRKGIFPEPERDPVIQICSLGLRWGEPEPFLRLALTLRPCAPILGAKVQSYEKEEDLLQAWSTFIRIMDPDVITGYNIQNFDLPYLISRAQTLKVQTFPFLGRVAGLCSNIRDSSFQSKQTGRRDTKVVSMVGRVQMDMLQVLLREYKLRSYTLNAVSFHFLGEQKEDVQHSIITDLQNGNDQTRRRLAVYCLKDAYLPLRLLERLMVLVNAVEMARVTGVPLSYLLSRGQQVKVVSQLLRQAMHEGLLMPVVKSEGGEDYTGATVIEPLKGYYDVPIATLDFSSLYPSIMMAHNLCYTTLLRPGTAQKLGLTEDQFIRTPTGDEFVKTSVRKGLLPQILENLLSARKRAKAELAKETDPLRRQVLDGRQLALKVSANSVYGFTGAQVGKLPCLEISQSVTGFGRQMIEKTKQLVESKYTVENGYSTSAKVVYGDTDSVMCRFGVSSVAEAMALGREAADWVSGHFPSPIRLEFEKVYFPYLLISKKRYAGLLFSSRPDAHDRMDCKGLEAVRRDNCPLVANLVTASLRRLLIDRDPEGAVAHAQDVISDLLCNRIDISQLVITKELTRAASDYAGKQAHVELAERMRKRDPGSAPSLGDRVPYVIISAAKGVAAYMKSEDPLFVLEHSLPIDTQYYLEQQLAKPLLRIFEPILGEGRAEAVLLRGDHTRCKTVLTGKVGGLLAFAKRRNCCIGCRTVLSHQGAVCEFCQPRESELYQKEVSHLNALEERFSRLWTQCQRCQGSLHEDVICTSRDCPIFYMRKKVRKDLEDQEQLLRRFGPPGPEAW
# HCT-116 [5] = experiment: Cytotoxicity against MMS-induced p53 -/- human HCT116 cells assessed as reduction in clonogenic survival at 13.7 uM incubated for 24 hrs by WST-1 assay relative to control; format: functional
smiles,measurement,setting,value
CC[C@H](C)[C@H](NC(=O)[C@H](Cc1ccc(O)cc1)NC(=O)OC(C)(C)C)C(=O)Nc1cccc2ccccc12,IC50,[1],> 200 µM
same,Activity,HCT-116 [2],Active
same,Activity,HCT-116 [3],Active
same,IC50,[4],> 200 µM
same,fold change (FC),HCT-116 [5],25
